# Laboratory results: patent publication US20110105515A1, “TARGETING THE ONCOPROTEIN NUCLEOPHOSMIN” (President and Fellows of Harvard College, priority 2007, published 2011)
# Like-named read-outs stand apart in the source and are kept apart here.
# What was measured:
# UACC-257 = experiment: cells; conditions: Homo sapiens, UACC-257, 48 h; for CC50: read-out: LC50
# NCI-H23 = experiment: cells; conditions: Homo sapiens, NCI-H23, 48 h; for CC50: read-out: LC50
# U251 = experiment: cells; conditions: Homo sapiens, U-251, 48 h; for CC50: read-out: LC50
# KM12 = experiment: cells; conditions: Homo sapiens, KM12, 48 h; for CC50: read-out: LC50
# A549/ATCC = experiment: cells; conditions: Homo sapiens, A549, 48 h; for CC50: read-out: LC50
# ACHN = experiment: cells; conditions: Homo sapiens, 48 h; for CC50: read-out: LC50
# HCT-15 = experiment: cells; conditions: Homo sapiens, HCT-15, 48 h; for CC50: read-out: LC50
# SNB-19 = experiment: cells; conditions: Homo sapiens, SNB-19, 48 h; for CC50: read-out: LC50
# MCF7 = experiment: cells; conditions: Homo sapiens, MCF7, 48 h; for CC50: read-out: LC50
# SK-OV-3 = experiment: cells; conditions: Homo sapiens, SK-OV-3, 48 h; for CC50: read-out: LC50
# HL-60(TB) = experiment: cells; conditions: Homo sapiens, HL-60, 48 h; for CC50: read-out: LC50
# UO-31 = experiment: cells; conditions: Homo sapiens, UO-31, 48 h; for CC50: read-out: LC50
# BT-549 = experiment: cells; conditions: Homo sapiens, BT-549, 48 h; for CC50: read-out: LC50
# HOP-62 = experiment: cells; conditions: Homo sapiens, HOP-62, 48 h; for CC50: read-out: LC50
# SN12C = experiment: cells; conditions: Homo sapiens, 48 h; for CC50: read-out: LC50
# SW-620 = experiment: cells; conditions: Homo sapiens, SW-620, 48 h; for CC50: read-out: LC50
# SF-268 = experiment: cells; conditions: Homo sapiens, SF-268, 48 h; for CC50: read-out: LC50
# 786-0 = experiment: cells; conditions: Homo sapiens, 786-0, 48 h; for CC50: read-out: LC50
# MALME-3M = experiment: cells; conditions: Homo sapiens, 48 h; for CC50: read-out: LC50
# RPMI-8226 = experiment: cells; conditions: Homo sapiens, RPMI-8226, 48 h
# SF-539 = experiment: cells; conditions: Homo sapiens, SF-539, 48 h; for CC50: read-out: LC50
# SR = experiment: cells; conditions: Homo sapiens, 48 h
# OVCAR-5 = experiment: cells; conditions: Homo sapiens, OVCAR-5, 48 h; for CC50: read-out: LC50
# DU-145 = experiment: cells; conditions: Homo sapiens, DU-145, 48 h; for CC50: read-out: LC50
# TK-10 = experiment: cells; conditions: Homo sapiens, TK-10, 48 h; for CC50: read-out: LC50
# NCI-H226 = experiment: cells; conditions: Homo sapiens, NCI-H226, 48 h; for CC50: read-out: LC50
# HT29 = experiment: cells; conditions: Homo sapiens, HT-29, 48 h; for CC50: read-out: LC50
# CCRF-CEM = experiment: cells; conditions: Homo sapiens, 48 h
# OVCAR-4 = experiment: cells; conditions: Homo sapiens, OVCAR-4, 48 h
# HCT-116 = experiment: cells; conditions: Homo sapiens, HCT-116, 48 h; for CC50: read-out: LC50
# MDA-MB-231/ATCC = experiment: cells; conditions: Homo sapiens, MDA-MB-231, 48 h; for CC50: read-out: LC50
# A498 = experiment: cells; conditions: Homo sapiens, A498, 48 h; for CC50: read-out: LC50
# M14 = experiment: cells; conditions: Homo sapiens, M14, 48 h; for CC50: read-out: LC50
# EKVX = experiment: cells; conditions: Homo sapiens, 48 h; for CC50: read-out: LC50
# HOP-92 = experiment: NCI 60 cell lines, SRB assay: HOP-92; conditions: for CC50: read-out: LC50
# [1] = HOP-92 (Non-Small Cell Lung Cancer), 48 hours, SRB
smiles,measurement,setting,value
Cc1cc(C)cc(-c2ccc3c(c2)[N+]([O-])=C2C3=C[C@@]34NC(=O)C5(CCCN5C3=O)CC4C2(C)C)c1 (stereo partly drawn) [Biphenyl Analogue],GI50,UACC-257,272 nM
same,CC50,UACC-257,3740 nM
same,GI50,NCI-H23,206 nM
same,CC50,NCI-H23,3580 nM
same,GI50,U251,136 nM
same,CC50,U251,547 nM
same,GI50,KM12,257 nM
same,CC50,KM12,3910 nM
same,GI50,A549/ATCC,279 nM
same,CC50,A549/ATCC,3000 nM
same,GI50,ACHN,214 nM
same,CC50,ACHN,2260 nM
same,GI50,HCT-15,146 nM
same,CC50,HCT-15,710 nM
same,GI50,SNB-19,238 nM
same,CC50,SNB-19,3090 nM
same,GI50,MCF7,212 nM
same,CC50,MCF7,5510 nM
same,GI50,SK-OV-3,300 nM
same,CC50,SK-OV-3,3450 nM
same,GI50,HL-60(TB),131 nM
same,CC50,HL-60(TB),64300 nM
same,GI50,UO-31,190 nM
same,CC50,UO-31,2760 nM
same,GI50,BT-549,95.3 nM
same,CC50,BT-549,1700 nM
same,GI50,HOP-62,1640 nM
same,CC50,HOP-62,6740 nM
same,GI50,SN12C,214 nM
same,CC50,SN12C,2520 nM
same,GI50,SW-620,151 nM
same,CC50,SW-620,806 nM
same,GI50,SF-268,236 nM
same,CC50,SF-268,3320 nM
same,GI50,786-0,192 nM
same,CC50,786-0,825 nM
same,GI50,MALME-3M,41.7 nM
same,CC50,MALME-3M,1500 nM
same,GI50,RPMI-8226,10.2 nM
same,GI50,SF-539,186 nM
same,CC50,SF-539,1170 nM
same,GI50,SR,118 nM
same,GI50,OVCAR-5,368 nM
same,CC50,OVCAR-5,4210 nM
same,GI50,DU-145,280 nM
same,CC50,DU-145,3660 nM
same,GI50,TK-10,263 nM
same,CC50,TK-10,3380 nM
same,GI50,NCI-H226,199 nM
same,CC50,NCI-H226,2920 nM
same,GI50,HT29,284 nM
same,CC50,HT29,> 100000 nM
same,GI50,CCRF-CEM,105 nM
same,GI50,OVCAR-4,237 nM
same,GI50,HCT-116,186 nM
same,CC50,HCT-116,764 nM
same,GI50,MDA-MB-231/ATCC,240 nM
same,CC50,MDA-MB-231/ATCC,3760 nM
same,GI50,A498,285 nM
same,CC50,A498,3830 nM
same,GI50,M14,205 nM
same,CC50,M14,2180 nM
same,GI50,EKVX,296 nM
same,CC50,EKVX,3470 nM
CN(C)c1cccc2c(S(=O)(=O)NCCCCCCCCCCOc3ccc4c(c3)[N+]([O-])=C3C4=C[C@@]45NC(=O)C6(CCCN6C4=O)CC5C3(C)C)cccc12 (stereo partly drawn) [Dansyl Analogue],GI50,HOP-92; [1],224 nM
same,TGI,HOP-92; [1],867 nM
same,CC50,HOP-92; [1],12700 nM
[2H]On1c2c(c3ccc4c(c31)C=CC(C)(C)O4)C(OC([2H])([2H])[2H])[C@@]13NC(=O)C4(CCCN4C1=O)CC3C2(C)C (stereo partly drawn) [Deuterated Methanol Adduct],GI50,UACC-257,587 nM
same,CC50,UACC-257,4450 nM
same,GI50,NCI-H23,995 nM
same,CC50,NCI-H23,5900 nM
same,GI50,U251,382 nM
same,CC50,U251,3700 nM
same,GI50,KM12,1270 nM
same,CC50,KM12,5020 nM
same,GI50,A549/ATCC,1560 nM
same,CC50,A549/ATCC,5730 nM
same,GI50,ACHN,1270 nM
same,CC50,ACHN,5030 nM
same,GI50,HCT-15,548 nM
same,CC50,HCT-15,4230 nM
same,GI50,SNB-19,1110 nM
same,CC50,SNB-19,4810 nM
same,GI50,MCF7,348 nM
same,CC50,MCF7,4560 nM
same,GI50,SK-OV-3,1010 nM
same,CC50,SK-OV-3,4650 nM
same,GI50,HL-60(TB),298 nM
same,CC50,HL-60(TB),9370 nM
same,GI50,UO-31,498 nM
same,CC50,UO-31,4290 nM
same,GI50,BT-549,598 nM
same,CC50,BT-549,4690 nM
same,GI50,HOP-62,2390 nM
same,CC50,HOP-62,26700 nM
same,GI50,SN12C,1120 nM
same,CC50,SN12C,4820 nM
same,GI50,SW-620,375 nM
same,CC50,SW-620,4900 nM
same,GI50,SF-268,1500 nM
same,CC50,SF-268,6060 nM
same,GI50,786-0,1200 nM
same,CC50,786-0,5020 nM
same,GI50,MALME-3M,174 nM
same,CC50,MALME-3M,5090 nM
same,GI50,RPMI-8226,40.2 nM
same,CC50,RPMI-8226; read-out: LC50,3300 nM
same,GI50,SF-539,431 nM
same,CC50,SF-539,3830 nM
same,TGI,HOP-92; [1],1300 nM
same,GI50,"HOP-92; Homo sapiens, HOP-92, 48 h",222 nM
same,CC50,"HOP-92; Homo sapiens, HOP-92, 48 h",4620 nM
same,GI50,SR,235 nM
same,CC50,SR; read-out: LC50,9370 nM
same,GI50,OVCAR-5,586 nM
same,CC50,OVCAR-5,4490 nM
same,GI50,DU-145,1750 nM
same,CC50,DU-145,5590 nM
same,GI50,TK-10,1070 nM
same,CC50,TK-10,5150 nM
same,GI50,NCI-H226,391 nM
same,CC50,NCI-H226,4120 nM
same,GI50,HT29,1260 nM
same,CC50,HT29,68100 nM
same,GI50,CCRF-CEM,185 nM
same,CC50,CCRF-CEM; read-out: LC50,4600 nM
same,GI50,OVCAR-4,373 nM
same,CC50,OVCAR-4; read-out: LC50,4140 nM
same,GI50,HCT-116,744 nM
same,CC50,HCT-116,4440 nM
same,GI50,MDA-MB-231/ATCC,538 nM
same,CC50,MDA-MB-231/ATCC,4320 nM
same,GI50,A498,1020 nM
same,CC50,A498,4820 nM
same,GI50,M14,1060 nM
same,CC50,M14,5900 nM
same,GI50,EKVX,594 nM
same,CC50,EKVX,4640 nM
